Patent publication US10774064B2 (Cadent Therapeutics, Inc., priority 2016, dated 2020)

The molecules below were run against T1, small-conductance Ca2+-activated K+ channels (SK channels, subtype 2) (Homo sapiens, UniProt Q9H2S1) (assay: whole-cell patch-clamp of ionic current through SK2 channels in HEK293 cells (SC100)). Conditions: concentration that increases the basal current by 100%; HEK293 cells expressing SK2 channels.
T1 construct: expressed in transfected cells; host or cells: HEK293
Assay type: cell-based
How it was run: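 SC100, the concentration doubling basal current (a 100% increase), was taken from SK2 currents recorded by whole-cell patch-clamp in SK2-expressing HEK293 cells.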

Compound	SC100
Cc1cc(-n2ccc(C)n2)nc(NC2CCC(F)(F)CC2)n1 [Compound 120, N-(4,4-difluorocyclohexyl)-4-methyl-6-(3-methyl-1H-pyrazol-1-yl)pyrimidin-2-amine]	++ (++ means 200 nM-1000 nM)
Cc1cc(C)n(-c2cccc(NC3CCC(F)(F)CC3)n2)n1 [Compound 154, N-(4,4-difluorocyclohexyl)-6-(3,5-dimethyl-1H-pyrazol-1-yl)pyridin-2-amine]	+ (+ means >1 uM)
Cc1cc(NC2CCC(F)(F)CC2)nc(-n2ccc(C(C)(C)O)n2)c1 [Compound 265, 2-(1-(6-((4,4-difluorocyclohexyl)amino)-4-methylpyridin-2-yl)-1H-pyrazol-3-yl)propan-2-ol]	+ (+ means >1 uM)
Cc1cc(C)n(-c2cc(CN)cc(NC3CCC(F)(F)CC3)n2)n1 [Compound 195, 4-(aminomethyl)-N-(4,4-difluorocyclohexyl)-6-(3,5-dimethyl-1H-pyrazol-1-yl)pyridin-2-amine]	++ (++ means 200 nM-1000 nM)
CC1(O)CN(c2cc(NC3CCC(F)(F)CC3)nc(-n3ccc(CF)n3)c2)C1 [Compound 326, 1-(2-((4,4-difluorocyclohexyl)amino)-6-(3-(fluoromethyl)-1H-pyrazol-1-yl)pyridin-4-yl)-3-methylazetidin-3-ol]	++ (++ means 200 nM-1000 nM)
CC(O)c1csc(-c2nc(NC3CCC(F)(F)CC3)cc(N3CCOCC3)n2)n1 (stereo not drawn) [Compound 340, 1-(2-(4-((4,4-difluorocyclohexyl)amino)-6-morpholinopyrimidin-2-yl)thiazol-4-yl)ethan-1-ol]	+ (+ means >1 uM)
Cc1cc(C)n(-c2cc(C(O)c3ncco3)cc(NC3CCC(F)(F)CC3)n2)n1 (stereo not drawn) [Compound 343, (2-((4,4-difluorocyclohexyl)amino)-6-(3,5-dimethyl-1H-pyrazol-1-yl)pyridin-4-yl)(oxazol-2-yl)methanol]	++ (++ means 200 nM-1000 nM)
Cc1cc(C)n(-c2nc(NC3CCCC(F)(F)C3)cc(C(N)=O)n2)n1 (stereo not drawn) [Compound 350, 6-((3,3-difluorocyclohexyl)amino)-2-(3,5-dimethyl-1H-pyrazol-1-yl)pyrimidine-4-carboxamide]	+ (+ means >1 uM)
Cc1cc(NC2CCC(F)(F)C2)nc(-n2ccc(C)n2)n1 (stereo not drawn) [Compound 150, N-(3,3-difluorocyclopentyl)-6-methyl-2-(3-methyl-1H-pyrazol-1-yl)pyrimidin-4-amine]	+ (+ means >1 uM)
CCc1cc(C)nn1-c1nc(C)cc(NC2CCC(F)(F)CC2)n1 [Compound 260, N-(4,4-difluorocyclohexyl)-2-(5-ethyl-3-methyl-1H-pyrazol-1-yl)-6-methylpyrimidin-4-amine]	+ (+ means >1 uM)
Cc1cc(C)n(-c2nc(NC3CCC(F)(F)CC3)cc([C@@H]3COCC[C@H]3O)n2)n1 [Compound 254, (+)-3-(6-((4,4-difluorocyclohexyl)amino)-2-(3,5-dimethyl-1H-pyrazol-1-yl)pyrimidin-4-yl)tetrahydro-2H-pyran-4-ol]	+ (+ means >1 uM)
Cc1cc(NC2CCC(F)(F)CC2)nc(-n2ccc(CO)n2)n1 [Compound 204, (1-(4-((4,4-difluorocyclohexyl)amino)-6-methylpyrimidin-2-yl)-1H-pyrazol-3-yl)methanol]	+ (+ means >1 uM)
FCc1ccn(-c2nc(NC3CCC(F)(F)CC3)cc(N3CC4(COC4)C3)n2)n1 [Compound 338, N-(4,4-difluorocyclohexyl)-2-(3-(fluoromethyl)-1H-pyrazol-1-yl)-6-(2-oxa-6-azaspiro[3.3]heptan-6-yl)pyrimidin-4-amine]	++ (++ means 200 nM-1000 nM)
Cc1ccn(-c2cc(Cl)cc(NC3CCC(F)(F)CC3)n2)n1 [Compound 179, 4-chloro-N-(4,4-difluorocyclohexyl)-6-(3-methyl-1H-pyrazol-1-yl)pyridin-2-amine]	++ (++ means 200 nM-1000 nM)
Cc1cn(-c2nc(NC3CCC(F)(F)CC3)cc(N3CCOCC3)n2)nc1C(F)F [Compound 282, N-(4,4-difluorocyclohexyl)-2-(3-(difluoromethyl)-4-methyl-1H-pyrazol-1-yl)-6-morpholinopyrimidin-4-amine]	+ (+ means >1 uM)

Same assay, conditions: whole-cell patch-clamp, HEK293 cells expressing SK2 channels; concentration that increases the basal current by 100%

Compound	SC100 (μM)
COc1c(NC2CCC(F)(F)CC2)nc(-c2nc(C)cs2)nc1OCc1cnco1 [IN11111-021-P1]	++ (++ means 200 nM-1000 nM)
Cc1cc(C)n(-c2cc(NC3CCC(F)(F)CC3)cc(N3CCOCC3)n2)n1 [IN10991-065-P1, N-(4,4-difluorocyclohexyl)-2-(3,5-dimethyl-1H-pyrazol-1-yl)-6-morpholinopyridin-4-amine]	+ (+ means >1 uM)
COc1cc(NC2CCC(F)(F)CC2)nc(-n2nc(C)cc2C)c1 [IN11054-038-P1]	+ (+ means >1 uM)
Cc1ccn(-c2cc(OCc3ncn(C)n3)cc(NC3CCC(F)(F)CC3)n2)n1 [NSSy5641]	++ (++ means 200 nM-1000 nM)
Cc1csc(-c2cc(OC3CCC(F)(F)CC3)nc(N3CCOCC3)c2)n1 [NSSy6374, 4-(6-((4,4-difluorocyclohexyl)oxy)-4-(4-methylthiazol-2-yl)pyridin-2-yl) morpholine]	+ (+ means >1 uM)
COC(=O)NCCOc1c(NC2CCC(F)(F)CC2)nc(-c2nc(C)cs2)[nH]c1=O [IN11125-065-P1, methyl (2-((4-((4,4-difluorocyclohexyl)amino)-6-hydroxy-2-(4-methylthiazol-2-yl)pyrimidin-5-yl)oxy)ethyl)carbamate]	+ (+ means >1 uM)
Cc1csc(-c2nc(NC3CCC(F)(F)CC3)cc(N(C)C3COC3)n2)n1 [IN10882-043-P1]	+ (+ means >1 uM)
Cc1ccn(-c2cc(CNC(=O)C(C)C)cc(NC3CCC(F)(F)CC3)n2)n1 [NSSy5637]	++ (++ means 200 nM-1000 nM)
Cc1ccn(-c2cc(N3CCOCC3)cc([C@H](O)c3ccc(F)cc3)n2)n1 [NSSy6514, (R)-(4-fluorophenyl)(6-(3-methyl-1H-pyrazol-1-yl)-4-morpholinopyridin-2-yl)methanol]	+ (+ means >1 uM)
Cc1ccn(-c2cc(C3CCNCC3)cc(NC3CCC(F)(F)CC3)n2)n1 [NSSy6897, N-(4,4-difluorocyclohexyl)-6-(3-methyl-1H-pyrazol-1-yl)-4-(piperidin-4-yl)pyridin-2-amine]	++ (++ means 200 nM-1000 nM)
Cc1csc(-c2cc(CO)cc(NC3CCC(F)(F)CC3)n2)n1 [NSSy6730, (2-((4,4-difluorocyclohexyl)amino)-6-(4-methylthiazol-2-yl)pyridin-4-yl) methanol]	++ (++ means 200 nM-1000 nM)
Cc1csc(-c2nc(NC3CC(F)(F)C3)cc(OC3CCOCC3)n2)n1 [IN11133-020-P1, N-(3,3-difluorocyclobutyl)-2-(4-methylthiazol-2-yl)-6-((tetrahydro-2H-pyran-4-yl)oxy) pyrimidin-4-amine]	+ (+ means >1 uM)
Cc1csc(-c2nc(NC3CCC(F)(F)CC3)cc(-c3ccccc3)n2)n1 [IN11218-030-P1]	++ (++ means 200 nM-1000 nM)
COCCOc1cc(-n2ccc(C)n2)nc(NC2CCC(F)(F)CC2)n1 [NSSy6675]	+ (+ means >1 uM)
Cc1ccn(-c2cc(CC#N)nc(NC3CCC(F)(F)CC3)n2)n1 [NSSy6800, 2-(2-((4,4-difluorocyclohexyl)amino)-6-(3-methyl-1H-pyrazol-1-yl)pyrimidin-4-yl)acetonitrile]	++ (++ means 200 nM-1000 nM)
COC(=O)N1CC=C(c2cc(NC3CCC(F)(F)CC3)nc(-n3ccc(C)n3)c2)CC1 [IN11130-077-P1, methyl 2′-((4,4-difluorocyclohexyl)amino)-6′-(3-methyl-1H-pyrazol-1-yl)-3,6-dihydro-[4,4′-bipyridine]-1(2H)-carboxylate]	+ (+ means >1 uM)
Cc1csc(-c2nc(NC3CCC(F)(F)CC3)cc(N3CCN(C)C(=O)C3)n2)n1 [NSSy6093]	++ (++ means 200 nM-1000 nM)
COc1cc(NC2CCC3(CC2)COC3)nc(-c2nc(C)cs2)n1 [IN11104-084-P2]	+ (+ means >1 uM)
Cc1nsc(-c2nc(NC3CCC(F)(F)CC3)cc(N3CCN4C(=O)OCC4C3)n2)n1 (stereo not drawn) [NSSy6178]	++ (++ means 200 nM-1000 nM)
Cc1ccn(-c2cc(C(O)Cc3cnn(C)n3)cc(NC3CCC(F)(F)CC3)n2)n1 (stereo not drawn) [NSSy7064]	++ (++ means 200 nM-1000 nM)
COC(=O)N1CC(Oc2cc(NC3CCC(F)CC3)nc(-c3nc(C)cs3)n2)C1 (stereo not drawn) [NSSy5710]	++ (++ means 200 nM-1000 nM)
Cc1csc(-c2cc(N3CCOCC3)nc(NC3CCC(F)(F)CC3)n2)n1 [NSSy6391, N-(4,4-difluorocyclohexyl)-4-(4-methylthiazol-2-yl)-6-morpholinopyrimidin-2-amine]	+ (+ means >1 uM)
Cc1ccn(-c2cc([C@@H](O)c3ncco3)cc(NC3CCC(F)(F)CC3)n2)n1 [NSSy6415]	++ (++ means 200 nM-1000 nM)
CC(=O)N1CCCC(OCc2cc(NC3CCC(F)(F)CC3)nc(-n3ccc(C)n3)c2)C1 (stereo not drawn) [IN11067-003-P1]	++ (++ means 200 nM-1000 nM)
Cc1csc(-c2nc(NC3CCC(F)(F)CC3)cc(OC3COC3)n2)n1 [IN11079-033-P1]	++ (++ means 200 nM-1000 nM)
Cc1ccn(-c2cc(COc3ccc(C#N)nn3)cc(NC3CCC(F)(F)CC3)n2)n1 [NSSy6417]	+++ (+++ means <200 nM)
N#Cc1ccn(-c2nc(NC3CCC(F)(F)CC3)cc(N3CCOCC3)n2)n1 [IN11177-068-P1]	+ (+ means >1 uM)
Cc1nsc(-c2nc(NC3CCC(F)(F)CC3)cc(N3CCN4C(=O)OC[C@@H]4C3)n2)n1 [NSSy6251]	++ (++ means 200 nM-1000 nM)
COCCOCc1cc(NC2CCC(F)(F)CC2)nc(-n2ccc(C)n2)c1 [IN11125-012-P1]	++ (++ means 200 nM-1000 nM)
Cc1csc(-c2nc(NC3CCC(F)(F)CC3)cc(N3CCN(C(C)C)CC3)n2)n1 [IN10864-031-P1]	+++ (+++ means <200 nM)
